Measurements from paper PMC4561207 (Child's nervous system : ChNS : official journal of the …, 2015).

How the values were obtained:
[1] = pediatric MTD of 12mg/m^2/day; cited from earlier work
Phase I dose escalation = format: in vivo
primary CNS tumor = experiment: MR diffusion and permeability perfusion imaging of tumor; format: in vivo, human
[2] = system: progressive glioblastoma multiforme; conditions: adults, therapy initiated at 45mg; cited from earlier work
[3] = Steady-state plasma pharmacokinetics, day 28 of course 1; format: in vivo, human

COc1cc2c(Oc3ccc4[nH]c(C)cc4c3F)ncnc2cc1OCCCN1CCCC1 [cediranib, Cediranib]
median AUC(0-inf) [1]: 0.9 µg·h/mL | median Cmax [1]: 0.067 µg/mL | MTD (Phase I dose escalation; Stratum II (patients receiving EIACD), maximum dose tested 20mg/m^2/d): not achieved | DLTs identified (Phase I dose escalation; human, in vivo): 8 | change in two dimensional mean permeability values (primary CNS tumor; baseline to course 1 day 7–14, p=0.0469): suggested a decrease from baseline | change in 2D permeability and 3D permeability values (primary CNS tumor; baseline to end of course 2, p=0.0078 each): suggested a decrease from baseline | 6-month progression-free survival [2]: 26% | radiographic response, patients [2]: 57% | Css,min, median ([3]; 20mg/m^2 QD, day 28 pre-dose trough): 0.0115 µg/mL | Css,max, median ([3]; day 28, steady state, plasma): 0.048 µg/mL | Tmax ([3]; human, plasma, oral): 2 to 6 h | AUC ([3]; human, plasma, oral, 32 mg/m2, steady-state AUC0—tlast, 32mg/m^2 QD, n=2): 0.892 µg·h/mL | AUC ([3]; human, plasma, oral, 32 mg/m2, steady-state AUC0—tlast, range, 32mg/m^2 QD, n=2): 0.522 to 1.26 µg·h/mL | AUC ([3]; human, plasma, oral, 40 mg/m2, steady-state AUC0—tlast, 40mg/m^2 QD, n=1): 0.77 µg·h/mL
